Measured values taken from ChEMBL document CHEMBL5653615 (J Biol Chem, 2013).
One block for each molecule: values may come before it. The source made the active and inactive calls. No cut-off for these calls is given here.

Columns and labels:
[1] = target: T1, Calcium/calmodulin-dependent protein kinase type IV (Homo sapiens) (UniProt Q16566); experiment: Inhibition of human CAMK4 at 18.6 nM by HotSpot assay relative to control
T1 sequence (whole entry): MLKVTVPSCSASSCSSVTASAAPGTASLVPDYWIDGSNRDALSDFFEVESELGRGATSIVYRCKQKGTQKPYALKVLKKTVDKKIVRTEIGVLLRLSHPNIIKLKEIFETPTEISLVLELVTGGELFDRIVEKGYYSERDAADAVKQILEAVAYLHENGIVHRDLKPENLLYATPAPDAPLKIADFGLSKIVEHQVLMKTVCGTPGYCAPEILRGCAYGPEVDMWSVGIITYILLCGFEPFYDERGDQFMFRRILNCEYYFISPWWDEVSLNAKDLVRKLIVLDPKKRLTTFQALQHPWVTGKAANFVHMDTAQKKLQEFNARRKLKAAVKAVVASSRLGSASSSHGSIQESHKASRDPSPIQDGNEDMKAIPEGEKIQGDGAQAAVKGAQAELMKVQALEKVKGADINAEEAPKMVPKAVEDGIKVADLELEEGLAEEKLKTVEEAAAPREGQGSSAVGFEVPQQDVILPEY

[2] = target: Cyclin-dependent kinase 2/cyclin E1 (Homo sapiens) (UniProt P24864+P24941); experiment: Inhibition of human CDK2/cyclin E at 18.6 nM by HotSpot assay relative to control; type: protein-complex assay
[3] = target: T2, cGMP-dependent protein kinase 1 (Homo sapiens) (UniProt Q13976); experiment: Inhibition of human PKG1a at 18.6 nM by HotSpot assay relative to control
T2 sequence (whole entry): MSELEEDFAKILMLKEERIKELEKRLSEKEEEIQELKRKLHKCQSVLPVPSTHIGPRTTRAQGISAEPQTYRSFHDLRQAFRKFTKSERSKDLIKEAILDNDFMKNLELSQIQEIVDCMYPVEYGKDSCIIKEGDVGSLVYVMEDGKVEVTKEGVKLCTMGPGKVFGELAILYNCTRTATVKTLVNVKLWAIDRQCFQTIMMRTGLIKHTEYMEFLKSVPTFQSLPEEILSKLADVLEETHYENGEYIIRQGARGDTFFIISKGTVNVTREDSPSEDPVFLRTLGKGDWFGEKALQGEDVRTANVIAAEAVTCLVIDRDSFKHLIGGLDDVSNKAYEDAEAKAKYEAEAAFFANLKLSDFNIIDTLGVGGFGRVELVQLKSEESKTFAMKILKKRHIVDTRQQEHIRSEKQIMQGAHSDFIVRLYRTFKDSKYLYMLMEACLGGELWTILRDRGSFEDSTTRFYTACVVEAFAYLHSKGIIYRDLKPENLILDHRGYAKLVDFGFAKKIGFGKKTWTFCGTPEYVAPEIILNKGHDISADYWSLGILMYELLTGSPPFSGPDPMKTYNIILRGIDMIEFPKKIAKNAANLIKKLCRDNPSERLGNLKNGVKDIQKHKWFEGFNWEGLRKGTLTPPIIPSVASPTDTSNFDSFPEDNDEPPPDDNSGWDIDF

[4] = target: T3, cAMP-dependent protein kinase catalytic subunit PRKX (Homo sapiens) (UniProt P51817); experiment: Inhibition of human PRKX at 18.6 nM by HotSpot assay relative to control
T3 sequence (whole entry): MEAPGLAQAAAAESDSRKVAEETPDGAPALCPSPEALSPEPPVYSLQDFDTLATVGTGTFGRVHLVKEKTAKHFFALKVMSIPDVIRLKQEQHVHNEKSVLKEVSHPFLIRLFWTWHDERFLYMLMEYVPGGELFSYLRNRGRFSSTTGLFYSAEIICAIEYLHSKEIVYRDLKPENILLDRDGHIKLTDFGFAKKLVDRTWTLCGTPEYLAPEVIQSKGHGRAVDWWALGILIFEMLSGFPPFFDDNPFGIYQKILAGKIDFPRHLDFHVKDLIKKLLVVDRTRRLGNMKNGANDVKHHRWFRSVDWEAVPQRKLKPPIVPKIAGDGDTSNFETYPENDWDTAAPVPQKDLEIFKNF

[5] = target: T4, Tyrosine-protein kinase JAK3 (Homo sapiens) (UniProt P52333); experiment: Inhibition of human JAK3 at 1.82 nM by HotSpot assay relative to control
T4 sequence (whole entry): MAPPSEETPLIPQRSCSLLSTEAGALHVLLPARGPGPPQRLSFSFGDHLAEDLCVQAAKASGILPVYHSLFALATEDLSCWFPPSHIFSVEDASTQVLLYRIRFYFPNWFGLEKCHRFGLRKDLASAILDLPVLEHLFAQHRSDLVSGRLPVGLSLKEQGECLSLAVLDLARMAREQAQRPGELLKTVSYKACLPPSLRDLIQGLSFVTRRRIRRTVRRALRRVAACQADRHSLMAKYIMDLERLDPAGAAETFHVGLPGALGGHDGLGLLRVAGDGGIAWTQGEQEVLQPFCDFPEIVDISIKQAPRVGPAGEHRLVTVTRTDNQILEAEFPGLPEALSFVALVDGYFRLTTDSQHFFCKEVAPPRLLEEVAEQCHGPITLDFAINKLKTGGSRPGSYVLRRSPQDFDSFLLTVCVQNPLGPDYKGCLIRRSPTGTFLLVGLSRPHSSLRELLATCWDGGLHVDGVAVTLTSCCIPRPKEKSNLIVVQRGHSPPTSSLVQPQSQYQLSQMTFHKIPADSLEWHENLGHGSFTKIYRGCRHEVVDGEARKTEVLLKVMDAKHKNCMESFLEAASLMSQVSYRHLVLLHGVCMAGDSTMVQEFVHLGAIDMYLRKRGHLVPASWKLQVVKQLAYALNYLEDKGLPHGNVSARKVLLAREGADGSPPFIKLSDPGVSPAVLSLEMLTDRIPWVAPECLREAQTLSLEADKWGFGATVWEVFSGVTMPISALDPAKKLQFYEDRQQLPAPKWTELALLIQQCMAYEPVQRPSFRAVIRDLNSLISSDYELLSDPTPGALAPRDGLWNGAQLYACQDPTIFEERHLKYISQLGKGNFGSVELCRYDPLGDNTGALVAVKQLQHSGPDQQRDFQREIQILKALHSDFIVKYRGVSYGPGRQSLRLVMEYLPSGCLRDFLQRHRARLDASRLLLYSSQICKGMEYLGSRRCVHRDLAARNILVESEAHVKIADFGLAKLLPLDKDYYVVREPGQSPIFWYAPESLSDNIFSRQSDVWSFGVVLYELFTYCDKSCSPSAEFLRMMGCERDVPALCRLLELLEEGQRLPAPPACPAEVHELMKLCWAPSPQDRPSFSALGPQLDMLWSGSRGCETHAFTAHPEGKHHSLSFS

[6] = target: T2, cGMP-dependent protein kinase 1 (Homo sapiens); experiment: Inhibition of human PKG1b at 1.82 nM by HotSpot assay relative to control
CHO-K1 = experiment: Inhibition of Insulin receptor M1153L mutant (unknown origin) transfected in CHO-K1 cell lysate at 10 uM for 30 mins on ice followed by insulin stimulation for 10 mins by Western blot analysis; type: subcellular; conditions: Homo sapiens, time 40.0 min

- inhibition [1]: 4.07%
- inhibition [2]: 2.03%
- inhibition [3]: 5.49%
- inhibition [4]: -0.35%
SMILES: C[C@]1(O)C[C@@H](c2nc(-c3ccc4ccc(-c5ccccc5)nc4c3)c3c(N)nccn32)C1

- inhibition [5]: -1.99%
- inhibition [6]: -2.16%
SMILES: C[C@@]1(C(=O)Nc2ccc(F)nc2)CCCN1c1nc(Nc2cc(C3CC3)n[nH]2)c2cccn2n1

SMILES: Oc1n[nH]c2nnc(-c3c(-c4ccccc4)nn4ccccc34)cc12
- inhibition (CHO-K1): inactive
